Measurements taken from patent US20240279236A1, “COMPOUNDS AND METHODS OF TREATING TUBERCULOSIS” (Fimbrion Therapeutics, Inc., priority 2021, published 2024).
pIC50: −log10 of the molar value.

System: WT Mtb Erdman strain
Assay: Microplate Alamar Blue Assay (MABA), Mtb growth inhibition
Format: cell-based, Mycobacterium tuberculosis
Settings: Middlebrook 7H9 media, 7 days at 37° C. in 5% CO2
[1] = Mycobacterium tuberculosis, ERDMAN, 168 h

| SMILES | pIC50 [1] | pIC50 |
| --- | --- | --- |
| Cc1cc2c(N[C@@H]3C[C@H]3c3ccc(F)c(F)c3)nc(N3CC(F)(F)C3)nc2s1 [Example 524, 2-(3,3-difluoroazetidin-1-yl)-N-((1R,2S)-2-(3,4-difluorophenyl)cyclopropyl)-6-methylthieno[2,3-d]pyrimidin-4-amine] | < 5.00 | – |
| CNc1nc(N[C@@H]2C[C@H]2c2ccc(F)c(F)c2)c2cc(C)sc2n1 [Example 525, N4-((1R,2S)-2-(3,4-difluorophenyl)cyclopropyl)-N2,6-dimethylthieno[2,3-d]pyrimidine-2,4-diamine] | 5.32 | – |
| Cc1cc2c(N[C@@H]3C[C@H]3c3ccc(F)c(F)c3)nc(NC3COC3)nc2s1 [Example 526, N4-((1R,2S)-2-(3,4-difluorophenyl)cyclopropyl)-6-methyl-N2-(oxetan-3-yl)thieno[2,3-d]pyrimidine-2,4-diamine] | < 5.00 | – |
| Cc1cc2c(N[C@@H]3C[C@H]3c3ccc(F)c(F)c3)nc(N)nc2s1 [Example 527, N4-((1R,2S)-2-(3,4-difluorophenyl)cyclopropyl)-6-methylthieno[2,3-d]pyrimidine-2,4-diamine] | < 5.00 | – |
| Cc1cc2c(NCCCc3ccc(-c4ccc(OC(F)(F)F)cc4)cc3)nc(N3CCCC3)nc2s1 [Example 528, 6-methyl-2-(pyrrolidin-1-yl)-N-(3-(4′-(trifluoromethoxy)-[1,1′-biphenyl]-4-yl)propyl)thieno[2,3-d]pyrimidin-4-amine] | 7.74 | – |
| Cc1cc2c(NCCCc3ccccc3)nc(NCc3ccco3)nc2s1 [Example 529, N2-(furan-2-ylmethyl)-6-methyl-N4-(3-phenylpropyl)thieno[2,3-d]pyrimidine-2,4-diamine] | < 5.00 | – |
| Cc1cc2c(NCCCc3ccc(-c4ccc(Cl)cc4)cc3)nc(N(C)C)nc2s1 [Example 531, N4-(3-(4′-chloro-[1,1′-biphenyl]-4-yl)propyl)-N2,N2,6-trimethylthieno[2,3-d]pyrimidine-2,4-diamine] | 7.92 | – |
| CNc1nc(NCCCc2ccc(-c3ccc(OC(F)(F)F)cc3)cc2)c2cc(C)sc2n1 [Example 532, N2,6-dimethyl-N4-(3-(4′-(trifluoromethoxy)-[1,1′-biphenyl]-4-yl)propyl)thieno[2,3-d]pyrimidine-2,4-diamine] | 7.31 | – |
| Cc1cc2c(NCCCc3ccc(-c4ccc(OC(F)(F)F)cc4)cc3)nc(N3CCC3)nc2s1 [Example 533, 2-(azetidin-1-yl)-6-methyl-N-(3-(4′-(trifluoromethoxy)-[1,1′-biphenyl]-4-yl)propyl)thieno[2,3-d]pyrimidin-4-amine] | 6.03 | – |
| Cc1cc2c(NCCCc3ccc(-c4ccc(OC(F)(F)F)cc4)cc3)nc(N3CCC(F)(F)C3)nc2s1 [Example 534, 2-(3,3-difluoropyrrolidin-1-yl)-6-methyl-N-(3-(4′-(trifluoromethoxy)-[1,1′-biphenyl]-4-yl)propyl)thieno[2,3-d]pyrimidin-4-amine] | 7.07 | – |
| Cc1cc2c(NCCCc3ccc(-c4ccc(OC(F)(F)F)cc4)cc3)nc(N(C)C)nc2s1 [Example 535, N2,N2,6-trimethyl-N4-(3-(4′-(trifluoromethoxy)-[1,1′-biphenyl]-4-yl)propyl)thieno[2,3-d]pyrimidine-2,4-diamine] | – | 8.40 |
| CN(C)c1nc(NCCCc2ccc(-c3ccc(OC(F)(F)F)cc3)cc2)c2ncsc2n1 [Example 536, N5,N5-dimethyl-N7-(3-(4′-(trifluoromethoxy)-[1,1′-biphenyl]-4-yl)propyl)thiazolo[5,4-d]pyrimidine-5,7-diamine] | 7.06 | – |
| Cc1cc2c(NCCCc3ccc(-c4ccc(OC(F)(F)F)cc4)cc3)nc(N)nc2s1 [Example 537, 6-methyl-N4-(3-(4′-(trifluoromethoxy)-[1,1′-biphenyl]-4-yl)propyl)thieno[2,3-d]pyrimidine-2,4-diamine] | 6.89 | – |
| CCN(C)c1nc(NCCCc2ccc(-c3ccc(OC(F)(F)F)cc3)cc2)c2cc(C)sc2n1 [Example 538, N2-ethyl-N2,6-dimethyl-N4-(3-(4′-(trifluoromethoxy)-[1,1′-biphenyl]-4-yl)propyl)thieno[2,3-d]pyrimidine-2,4-diamine] | 7.00 | – |
| CNc1nc(NCCCc2ccc(-c3ccc(N(C)C)cc3)cc2)c2cc(C)sc2n1 [Example 539, N4-(3-(4′-(dimethylamino)-[1,1′-biphenyl]-4-yl)propyl)-N2,6-dimethylthieno[2,3-d]pyrimidine-2,4-diamine] | 7.17 | – |
| CCOc1nc(NCCCc2ccccc2)c2ccsc2n1 [Example 542, 2-ethoxy-N-(3-phenylpropyl)thieno[2,3-d]pyrimidin-4-amine] | 6.82 | – |
| CCOc1nc(NCCCc2ccccc2)c2cc(C)sc2n1 [Example 543, 2-ethoxy-6-methyl-N-(3-phenylpropyl)thieno[2,3-d]pyrimidin-4-amine] | 6.89 | – |
| COc1nc(NCCCc2ccc(-c3ccc(OC(F)(F)F)cc3)cc2)c2cc(C)sc2n1 [Example 545, 2-methoxy-6-methyl-N-(3-(4′-(trifluoromethoxy)-[1,1′-biphenyl]-4-yl)propyl)thieno[2,3-d]pyrimidin-4-amine] | 8.00 | – |

| SMILES | pIC50 [1] | pIC50 |
| --- | --- | --- |
| CCOc1nc(NCCCc2ccc(-c3ccc(OC(F)(F)F)cc3)cc2)c2cc(C)sc2n1 [Example 546, 2-ethoxy-6-methyl-N-(3-(4′-(trifluoromethoxy)-[1,1′-biphenyl]-4-yl)propyl)thieno[2,3-d]pyrimidin-4-amine] | 7.82 | – |
| COc1nc(NCCCc2ccc(-c3ccc(OC(F)(F)F)cc3)cc2)c2nc(C)sc2n1 [Example 547, 5-methoxy-2-methyl-N-(3-[4′-(trifluoromethoxy)-[1,1′-biphenyl]-4-yl]propyl)-[1,3]thiazolo[5,4-d]pyrimidin-7-amine] | 7.48 | – |
| Cc1cc2c(NCCCc3ccc(-c4ccc([N+](=O)[O-])cc4)cc3)nc(N3CCCC3)nc2s1 [Example 549, 6-methyl-N-(3-(4′-nitro-[1,1′-biphenyl]-4-yl)propyl)-2-(pyrrolidin-1-yl)thieno[2,3-d]pyrimidin-4-amine] | 7.54 | – |
| Cc1cc2c(NCCCc3ccc(-c4ccc(F)nc4)cc3)nc(N(C)C)nc2s1 [Example 555, N4-(3-[4-(6-fluoropyridin-3-yl)phenyl]propyl)-N2,N2,6-trimethylthieno[2,3-d]pyrimidine-2,4-diamine] | 7.54 | – |
| Cc1cc2c(NCCCc3ccc(-c4ccc(F)cc4)cc3)nc(N(C)C)nc2s1 [Example 556, N4-(3-(4′-fluoro-[1,1′-biphenyl]-4-yl)propyl)-N2,N2,6-trimethylthieno[2,3-d]pyrimidine-2,4-diamine] | > 8.40 | – |
| Cc1cc2c(NCCCc3ccc(-c4ccc(C(F)(F)F)cn4)cc3)nc(N(C)C)nc2s1 [Example 557, N2,N2,6-trimethyl-N4-(3-(4-[5-(trifluoromethyl)pyridin-2-yl]phenyl)propyl)thieno[2,3-d]pyrimidine-2,4-diamine] | > 8.40 | – |
| Cc1cc2c(NCCCc3ccc(-c4ncc(C(F)(F)F)cn4)cc3)nc(N(C)C)nc2s1 [Example 558, N2,N2,6-trimethyl-N4-(3-(4-[5-(trifluoromethyl)pyrimidin-2-yl]phenyl)propyl)thieno[2,3-d]pyrimidine-2,4-diamine] | > 8.40 | – |
| Cc1cnc(-c2ccc(CCCNc3nc(N(C)C)nc4sc(C)cc34)cc2)cn1 [Example 559, N2,N2,6-trimethyl-N4-(3-[4-(5-methylpyrazin-2-yl)phenyl]propyl)thieno[2,3-d]pyrimidine-2,4-diamine] | 7.96 | – |
| CCOc1nc(NCCCc2ccc(-c3cnc(C(F)(F)F)cn3)cc2)c2cc(C)sc2n1 [Example 560, 2-ethoxy-6-methyl-N-(3-(4-[5-(trifluoromethyl)pyrazin-2-yl]phenyl)propyl)thieno[2,3-d]pyrimidin-4-amine] | 7.30 | – |
| COc1nc(NCCCc2ccc(-c3cnc(F)cn3)cc2)c2cc(C)sc2n1 [Example 561, N-(3-[4-(5-fluoropyrazin-2-yl)phenyl]propyl)-2-methoxy-6-methylthieno[2,3-d]pyrimidin-4-amine] | 7.51 | – |
| CCc1nc(NCCCc2c[nH]nn2)c2cc(C)sc2n1 [Example 562, N-(3-(1H-1,2,3-triazol-4-yl)propyl)-2-ethyl-6-methylthieno[2,3-d]pyrimidin-4-amine] | < 5.00 | – |
| CCc1nc(NCCCc2cn(-c3ccccc3)nn2)c2cc(C)sc2n1 [Example 563, 2-ethyl-6-methyl-N-(3-(1-phenyl-1H-1,2,3-triazol-4-yl)propyl)thieno[2,3-d]pyrimidin-4-amine] | 5.33 | – |
| CNC(=O)c1nc(NCCCc2ccc(OC(F)(F)F)cc2)c2cc(C)sc2n1 [Example 564, N,6-dimethyl-4-((3-(4-(trifluoromethoxy)phenyl)propyl)amino)thieno[2,3-d]pyrimidine-2-carboxamide] | 5.92 | – |
| Cc1cc2c(NCCCc3ccc(OC(F)(F)F)cc3)nc(C(=O)NC3CC3)nc2s1 [Example 565, N-cyclopropyl-6-methyl-4-((3-(4-(trifluoromethoxy)phenyl)propyl)amino)thieno[2,3-d]pyrimidine-2-carboxamide] | 5.37 | – |
| Cc1cc2c(N[C@H]3C[C@@H]3c3ccc(F)c(F)c3)nc(-c3ccc[nH]3)nc2s1 [Example 566, N-((1S,2R)-2-(3,4-difluorophenyl)cyclopropyl)-6-methyl-2-(1H-pyrrol-2-yl)thieno[2,3-d]pyrimidin-4-amine] | 5.80 | – |
| Cc1cc2c(NCCCc3ccc(-c4ccc(OC(F)(F)F)cc4)cc3)nc(-c3ccc[nH]3)nc2s1 [Example 567, 6-methyl-2-(1H-pyrrol-2-yl)-N-(3-(4′-(trifluoromethoxy)-[1,1′-biphenyl]-4-yl)propyl)thieno[2,3-d]pyrimidin-4-amine] | > 8.40 | – |
| Cc1cc2c(NCCCc3ccc(-c4ccc(OC(F)(F)F)cc4)cc3)nc(-c3cc[nH]c3)nc2s1 [Example 568, 6-methyl-2-(1H-pyrrol-3-yl)-N-(3-(4′-(trifluoromethoxy)-[1,1′-biphenyl]-4-yl)propyl)thieno[2,3-d]pyrimidin-4-amine] | < 6.00 | – |
| Cc1cc2c(NCCCc3ccc(-c4ccc([N+](=O)[O-])cc4)cc3)nc(-c3cc[nH]c3)nc2s1 [Example 569, 6-methyl-N-(3-(4′-nitro-[1,1′-biphenyl]-4-yl)propyl)-2-(1H-pyrrol-3-yl)thieno[2,3-d]pyrimidin-4-amine] | 7.15 | – |
